In patent US20260317324A1, “BIFUNCTIONAL COMPOUNDS FOR DEGRADING BRAF VIA UBIQUITIN PROTEOSOME PATHWAY” (Nurix Therapeutics, Inc., priority 2023, published 2026) one finds DC50 and Dmax data, which are given here for 9 compounds.

Structures are written as SMILES.

Holding throughout (assay type): cell-based
One assay addresses T1, BRAF G469A (Homo sapiens, UniProt P15056, G469A).
T1 construct: Horizon Discovery (HCT-116 BRAF−/− cells); host or cells: HCT-116 BRAF−/− cells, clone 34, lentiviral transduction
In words: BRAF HiBiT degradation assay, C-terminal HiBiT-tagged BRAF G469A overexpressed in HCT-116 BRAF−/− cells (clone 34), Nano-Glo HiBiT Lytic assay. The gist of the method:
(§1)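 Cells 3,000/well, 24 h at 37 °C; cpds 1 μM–0.01 nM, 11-pt half-log, duplicate, 0.2% DMSO. Readout: HiBiT lytic luminescence, 10 min at RT. Normalized to DMSO-treated tagged cells, with DMSO-treated wild-type HCT-116 as background. DC50 = fitted concentration at Y=50; Obs. Dmax = % degraded at maximal effect.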
On the technique in general: With HiBiT, luminescence reflects the tagged protein that the partner subunit can reach.

The target in another assay is T2, BRAF V600E (Homo sapiens, UniProt P15056, V600E).
T2 construct: endogenous C-terminal HiBiT fusion tag on BRAF V600E allele; endogenous in cells; host or cells: A375 clone 1F10 (CRISPR-Cas9 knock-in of the HiBiT tag; parental A375 from ATCC)
T2 sequence (P15056 whole entry V600E, the tested form may be a part): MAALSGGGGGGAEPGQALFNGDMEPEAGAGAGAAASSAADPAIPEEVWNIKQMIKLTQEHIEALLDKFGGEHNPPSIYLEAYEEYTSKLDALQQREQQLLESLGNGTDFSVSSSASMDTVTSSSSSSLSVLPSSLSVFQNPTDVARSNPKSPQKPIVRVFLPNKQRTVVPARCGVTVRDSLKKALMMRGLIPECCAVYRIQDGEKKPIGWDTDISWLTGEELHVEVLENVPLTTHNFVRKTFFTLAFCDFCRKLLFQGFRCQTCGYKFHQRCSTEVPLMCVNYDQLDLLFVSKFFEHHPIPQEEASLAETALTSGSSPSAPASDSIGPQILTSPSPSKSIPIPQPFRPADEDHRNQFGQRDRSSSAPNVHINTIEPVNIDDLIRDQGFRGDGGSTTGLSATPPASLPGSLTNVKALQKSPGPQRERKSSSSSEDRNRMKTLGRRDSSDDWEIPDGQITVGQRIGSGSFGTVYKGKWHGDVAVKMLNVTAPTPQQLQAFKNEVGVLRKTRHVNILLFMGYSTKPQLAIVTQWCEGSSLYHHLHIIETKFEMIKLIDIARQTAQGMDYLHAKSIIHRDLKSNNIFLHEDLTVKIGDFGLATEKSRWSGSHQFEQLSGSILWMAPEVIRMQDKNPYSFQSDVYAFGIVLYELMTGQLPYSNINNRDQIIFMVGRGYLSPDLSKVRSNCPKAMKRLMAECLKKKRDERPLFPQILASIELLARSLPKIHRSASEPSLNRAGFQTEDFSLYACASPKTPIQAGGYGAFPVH
The assay can be described thus: BRAF HiBiT degradation assay, C-terminal HiBiT-tagged BRAF V600E A375 cells (clone 1F10), Nano-Glo HiBiT Lytic assay. The settings on record: for Dmax: A-375. The procedure, abridged: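 Luminescence read-out: Nano-Glo HiBiT lytic reagent with LgBiT, 10 min at room temperature. Signal normalised to DMSO-treated tagged cells, with wildtype A375 as background. Cells are endogenously tagged BRAF V600E A375 clone 1F10. Compounds were tested from 1 μM to 0.01 nM; Dmax is observed % degraded at maximal effect.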

The target of another assay is T3, BRAF G466V (Homo sapiens, UniProt P15056, G466V).
T3 construct: Horizon Discovery (HCT-116 BRAF−/− cells); host or cells: HCT-116 BRAF−/− cells, clone 8, lentiviral transduction
T3 sequence (P15056 whole entry G466V): as the sequence (P15056 whole entry V600E, the tested form may be a part) above, with G466V, E600V counted along it
The assay can be described thus: BRAF HiBiT degradation assay, C-terminal HiBiT-tagged BRAF G466V overexpressed in HCT-116 BRAF−/− cells (clone 8), Nano-Glo HiBiT Lytic assay. The gist of the method:
as §1

The next assay deals with T4, BRAF D594G (Homo sapiens, UniProt P15056, D594G).
T4 construct: Horizon Discovery (HCT-116 BRAF−/− cells); host or cells: HCT-116 BRAF−/− cells, clone 63, lentiviral transduction
T4 sequence (P15056 whole entry D594G): as the sequence (P15056 whole entry V600E, the tested form may be a part) above, with D594G, E600V counted along it
In words: BRAF HiBiT degradation assay, C-terminal HiBiT-tagged BRAF D594G overexpressed in HCT-116 BRAF−/− cells (clone 63), Nano-Glo HiBiT Lytic assay. The procedure, abridged:
as §1

Setting [1] is: Class 2, BRAF G469A, DC50 at 50%: fitted conc. at Y=50.
[2] abbreviates: HCT-116, Class 2, BRAF G469A, percentage protein degraded at maximal compound effect relative to DMSO.
Where [3] appears, read: A375 (BRAF V600E), DC50 at 50%: fitted conc. at Y=50.
The mark [4] stands for this setting: A375 (BRAF V600E), percentage protein degraded at maximal compound effect relative to DMSO.
[5] abbreviates: BRAF G466V, DC50 at 50%: fitted conc. at Y=50.
The mark [6] stands for this setting: HCT-116, BRAF G466V, percentage protein degraded at maximal compound effect relative to DMSO.
[7] abbreviates: BRAF D594G, DC50 at 50%: fitted conc. at Y=50.
Where [8] appears, read: HCT-116, BRAF D594G, percentage protein degraded at maximal compound effect relative to DMSO.
Where [9] appears, read: BRAF G469A (Class 2), HCT-116 BRAF−/− cells, DC50 at 50% degradation.
Setting [10] is: BRAF G469A (Class 2), HCT-116 BRAF−/− cells, observed Dmax relative to DMSO control.
Where [11] appears, read: A375 (BRAF V600E, Class 1), DC50 at 50% degradation.
[12] abbreviates: A375 (BRAF V600E, Class 1), observed Dmax, % protein degraded relative to DMSO control.
Where [13] appears, read: BRAF G466V (Class 3), HCT-116 BRAF−/− cells, DC50 at 50% degradation.
Setting [14] is: BRAF G466V (Class 3), HCT-116 BRAF−/− cells, observed Dmax relative to DMSO control.
Where [15] appears, read: BRAF D594G (Class 3), HCT-116 BRAF−/− cells, DC50 at 50% degradation.
Where [16] appears, read: BRAF D594G (Class 3), HCT-116 BRAF−/− cells, observed Dmax relative to DMSO control.

T1 sequence (P15056 whole entry G469A): as the sequence (P15056 whole entry V600E, the tested form may be a part) above, with G469A, E600V counted along it

The DC50 is the concentration giving 50% degradation. As usually defined, the Dmax is the largest share of the target that was removed. Higher therefore signals a fuller loss of target. For the compound `CCN(C)S(=O)(=O)Nc1cccc(-c2nc(C(C)(C)C)sc2-c2ccnc(Nc3ccc(N4CCN(CC5CCN(c6ccc([C@@H]7CCC(=O)NC7=O)cc6)CC5)CC4)cn3)n2)c1F` [Compound 127, (3S)-3-{4-[4-({4-[6-({4-[2-tert-butyl-4-(3-{[ethyl(methyl)sulfamoyl]amino}-2-fluorophenyl)-1,3-thiazol-5-yl]pyrimidin-2-yl}amino)pyridin-3-yl]piperazin-1-yl}methyl)piperidin-1-yl]phenyl}piperidine-2,6-dione], the DC50 was 10 to 50 nM at BRAF G469A (setting [1]), 10 to 50 nM on BRAF V600E (setting [3]), 10 to 50 nM at BRAF G466V (setting [5]) and less than 10 nM on BRAF D594G (setting [7]). The Dmax at BRAF G469A (setting [2]) is 30 to 70%; on BRAF V600E (setting [4]), more than 70%; at BRAF G466V (setting [6]), 30 to 70%; at BRAF D594G (setting [8]) it was 30 to 70%.

As for `O=C1CCC(c2ccc(N3CCC(CN4CCN(c5ccc(-n6cc(-c7cc(Cl)cc(NS(=O)(=O)N8CCCC8)c7F)c(-c7ccncc7)n6)cc5F)CC4)CC3)nc2)C(=O)N1` (racemic) [Compound 363, Rac-N-{5-chloro-3-[1-(4-{4-[(1-{5-[(3R)-2,6-dioxopiperidin-3-yl]pyridin-2-yl}piperidin-4-yl)methyl]piperazin-1-yl}-3-fluorophenyl)-3-(pyridin-4-yl)-1H-pyrazol-4-yl]-2-fluorophenyl}pyrrolidine-1-sulfonamide], the DC50 at BRAF G469A (setting [9]), at BRAF V600E (setting [11]), on BRAF G466V (setting [13]) and on BRAF D594G (setting [15]) was less than 10 nM throughout. Also, the Dmax on BRAF G469A (setting [10]), on BRAF V600E (setting [12]), at BRAF G466V (setting [14]) and on BRAF D594G (setting [16]) was more than 70% each time.

Take `CCCS(=O)(=O)Nc1cccc(-c2cn(-c3ccc(C4CCN(CC5CCN(c6ccc(C7CCC(=O)NC7=O)c(F)c6)CC5)CC4)cc3)nc2-c2ccncc2)c1F` (racemic) [Compound 23, Rac-N-{3-[1-(4-{1-[(1-{4-[(3R)-2,6-dioxopiperidin-3-yl]-3-fluorophenyl}piperidin-4-yl)methyl]piperidin-4-yl}phenyl)-3-(pyridin-4-yl)-1H-pyrazol-4-yl]-2-fluorophenyl}propane-1-sulfonamide]: the 50% degradation concentration (DC50) on BRAF G469A (setting [1]) was more than 500 nM; on BRAF V600E (setting [3]), 10 to 50 nM; at BRAF G466V (setting [5]) it was 10 to 50 nM; at BRAF D594G (setting [7]), more than 500 nM. Moreover, the Dmax on BRAF G469A (setting [2]) is less than 30%; on BRAF V600E (setting [4]) it was more than 70%; on BRAF G466V (setting [6]) it was 30 to 70%; on BRAF D594G (setting [8]) it was 30 to 70%.

Take `CCCS(=O)(=O)Nc1cccc(-c2nc(C3CCN(C(=O)C4CCN(CC5CCN(c6cccc7c6n(C)c(=O)n7C6CCC(=O)NC6=O)CC5)CC4)CC3)sc2-c2ccnc(N)n2)c1F` (racemic) [Compound 195, Rac-N-{3-[5-(2-aminopyrimidin-4-yl)-2-(1-{1-[(1-{1-[(3R)-2,6-dioxopiperidin-3-yl]-3-methyl-2-oxo-2,3-dihydro-1H-1,3-benzodiazol-4-yl}piperidin-4-yl)methyl]piperidine-4-carbonyl}piperidin-4-yl)-1,3-thiazol-4-yl]-2-fluorophenyl}propane-1-sulfonamide]: the DC50 at BRAF G469A (setting [1]), on BRAF V600E (setting [3]), at BRAF G466V (setting [5]) and at BRAF D594G (setting [7]) was less than 10 nM each time. Further, the Dmax is 30 to 70% on BRAF G469A (setting [2]), more than 70% at BRAF V600E (setting [4]), 30 to 70% on BRAF G466V (setting [6]) and 30 to 70% at BRAF D594G (setting [8]).

As for `CCCS(=O)(=O)Nc1cccc(-c2nc(C)sc2-c2ccnc(Nc3ccc(C4CCN(C(=O)CC5CCN(c6ccc(NC7CCC(=O)NC7=O)cc6)CC5)CC4)cc3)n2)c1F` (racemic) [Compound 44, Rac-N-{3-[5-(2-{[4-(1-{2-[1-(4-{[(3R)-2,6-dioxopiperidin-3-yl]amino}phenyl)piperidin-4-yl]acetyl}piperidin-4-yl)phenyl]amino}pyrimidin-4-yl)-2-methyl-1,3-thiazol-4-yl]-2-fluorophenyl}propane-1-sulfonamide], the DC50 at BRAF G469A (setting [1]) was more than 500 nM; at BRAF V600E (setting [3]), less than 10 nM; at BRAF G466V (setting [5]), more than 500 nM; at BRAF D594G (setting [7]) it was more than 500 nM. The Dmax is less than 30% on BRAF G469A (setting [2]), more than 70% on BRAF V600E (setting [4]), less than 30% at BRAF G466V (setting [6]) and less than 30% at BRAF D594G (setting [8]).

Regarding `CCCS(=O)(=O)Nc1cccc(-c2cn(-c3ccc(N4CCN(CC5CCN(c6ccc(C7CCC(=O)NC7=O)cn6)CC5)CC4)nc3)nc2-c2ccncc2)c1F` (racemic) [Compound 3, Rac-N-{3-[1-(6-{4-[(1-{5-[(3R)-2,6-dioxopiperidin-3-yl]pyridin-2-yl}piperidin-4-yl)methyl]piperazin-1-yl}pyridin-3-yl)-3-(pyridin-4-yl)-1H-pyrazol-4-yl]-2-fluorophenyl}propane-1-sulfonamide], the DC50 on BRAF G469A (setting [1]) is more than 500 nM; at BRAF V600E (setting [3]), 50 to 500 nM; at BRAF G466V (setting [5]) it was 10 to 50 nM; at BRAF D594G (setting [7]) it was 10 to 50 nM. The Dmax at BRAF G469A (setting [2]) is 30 to 70%; on BRAF V600E (setting [4]), more than 70%; on BRAF G466V (setting [6]), 30 to 70%; on BRAF D594G (setting [8]), 30 to 70%.

As for `O=C1CCN(c2ccc(N3CCC(CN4CCN(c5ccc(-n6cc(-c7cc(Cl)cc(NS(=O)(=O)N8CC[C@@H](F)C8)c7F)c(-c7ccncc7)n6)c(F)c5)CC4)CC3)nc2)C(=O)N1` [Compound 371, (3R)—N-[5-chloro-3-(1-{4-[4-({1-[5-(2,4-dioxo-1,3-diazinan-1-yl)pyridin-2-yl]piperidin-4-yl}methyl)piperazin-1-yl]-2-fluorophenyl}-3-(pyridin-4-yl)-1H-pyrazol-4-yl)-2-fluorophenyl]-3-fluoropyrrolidine-1-sulfonamide], the DC50 on BRAF G469A (setting [9]), on BRAF V600E (setting [11]), at BRAF G466V (setting [13]) and at BRAF D594G (setting [15]) was less than 10 nM each time. Moreover, the maximal degradation (Dmax) at BRAF G469A (setting [10]) is 30 to 70%; at BRAF V600E (setting [12]), more than 70%; on BRAF G466V (setting [14]), 30 to 70%; on BRAF D594G (setting [16]), 30 to 70%.

For the compound `CCCS(=O)(=O)Nc1cccc(-c2nc(C(C)(C)C)sc2-c2ccnc(Nc3cnn(C4CCN(C(=O)[C@H]5CC[C@H](Oc6ccc(C7CCC(=O)NC7=O)cn6)CC5)CC4)c3)n2)c1F` (mixture of isomers) [Compound 109, N-[3-(2-tert-butyl-5-{2-[(1-{1-[(1r,4r)-4-({5-[(3RS)-2,6-dioxopiperidin-3-yl]pyridin-2-yl}oxy)cyclohexanecarbonyl]piperidin-4-yl}-1H-pyrazol-4-yl)amino]pyrimidin-4-yl}-1,3-thiazol-4-yl)-2-fluorophenyl]propane-1-sulfonamide], the DC50 was more than 500 nM at BRAF G469A (setting [1]), less than 10 nM on BRAF V600E (setting [3]), more than 500 nM on BRAF G466V (setting [5]) and more than 500 nM at BRAF D594G (setting [7]). Further, the greatest degradation seen (Dmax) is less than 30% on BRAF G469A (setting [2]), more than 70% at BRAF V600E (setting [4]), less than 30% on BRAF G466V (setting [6]) and less than 30% at BRAF D594G (setting [8]).

Consider `CCCS(=O)(=O)Nc1cccc(-c2nc(C(C)(C)C)sc2-c2ccnc(N[C@H]3CC[C@@H](N4CCN(C(=O)C5CCN(c6ccc(C7CCC(=O)NC7=O)cn6)CC5)CC4)CC3)n2)c1F` (mixture of isomers) [Compound 138, N-{3-[2-tert-butyl-5-(2-{[(1s,4s)-4-[4-(1-{5-[(3RS)-2,6-dioxopiperidin-3-yl]pyridin-2-yl}piperidine-4-carbonyl)piperazin-1-yl]cyclohexyl]amino}pyrimidin-4-yl)-1,3-thiazol-4-yl]-2-fluorophenyl}propane-1-sulfonamide], for which the DC50 is less than 10 nM on BRAF G469A (setting [1]), less than 10 nM on BRAF V600E (setting [3]), less than 10 nM on BRAF G466V (setting [5]) and 10 to 50 nM at BRAF D594G (setting [7]). For the same compound, the Dmax at BRAF G469A (setting [2]) was 30 to 70%; at BRAF V600E (setting [4]), more than 70%; on BRAF G466V (setting [6]) it was 30 to 70%; at BRAF D594G (setting [8]), 30 to 70%.
